In US20260191815A1, “THIOACRYLAMIDE DERIVATIVES FOR USE IN THE PREVENTION OR TREATMENT OF LIVER FIBROSIS” (CMR CUREDIAB METABOLIC RESEARCH GMBH, priority 2022, published 2026):
“Also recorded” adds a separate entry of the source.

Columns and labels:
[1] = tested on: IL-6 secretion in 3D PHH:NPC spheroids; experiment: IL-6 secretion (Luminex) by 3D PHH:NPC NASH spheroids; format: cell-based, human; details: for IL-6 levels compared to NASH: NASH medium
Description: (§1) Experiments were conducted using HepaPredict's (HepaPredict AB, Sweden) 3D primary human hepatocyte (PHH) spheroid NASH model (e.g. as published in Bell et al. Sci Rep. 2016 May 4; 6:25187. doi: 10.1038/srep25187).
Cryopreserved primary human hepatocytes were obtained from BioIVT (USA) and nonparenchymal cells (NPC) from LifeNetHealth (USA). After thawing, PHH-NPC cocultures were seeded in a multi-well 96-well Elplasia plate (Corning) in William's E medium containing 11 mM glucose, 10 μg/mL (control) or 10 mg/mL insulin (NASH), 100 nM dexamethasone, 5.5 mg/L transferrin, 6.7 μg/L selenite, 2 mM L-glutamine, 1 U/mL penicillin, 0.1 mg/mL streptomycin, and 10% fetal bovine serum (FBS). PHH-NPC cocultures were seeded in ratio of 6:1 PHH:NPC with a total of 40,000 PHH per well. When spheroids were formed, FBS was phased out and spheroids were maintained in either the same media to provide the negative control (“Ctrl”), or with addition of albumin-conjugated free fatty acid (FFA), comprised of 240 μM palmitic acid and 240 μM oleic acid (NASH medium) to provide the positive control (“NASH”). Compound exposure was conducted in NASH medium with medium exchanges every 48-72 hours.
After spheroid formation, cells were exposed to up to five different concentrations of the candidate molecules HK1 or HK3 (0.1 μM, 0.3 μM, 1 μM, 3 μM, and 10 μM) with or without FFA in the culture medium. All compound stocks and dilutions were prepared in DMSO, aliquoted and stored protected from light at −20° C. Fresh dosing solutions were prepared from these aliquots on each dosing day. All endpoints were evaluated after 14 days of exposure.
For statistical comparisons, normalized values for a given condition were compared to either the corresponding vehicle (DMSO) controls or the respective FFA (NASH) controls at the same time point using heteroscedastic unpaired two-tailed t-tests.
Secreted cytokines (IL-6 and IL-8) were measured in culture supernatants using a customized Magnetic Luminex Performance Assay (Human Cytokine Panel A, R&D Systems). The multiplexed assay was performed following the manufacturer's instructions. Standard curves were generated by resuspending the human recombinant cytokines mixture at concentrations ranging from […] with 8 points at 1:3 series dilution for the customized selection of […], IL-6 and IL-8/CXCL8. […] The fluorescence intensity was measured using a Bio-Plex 200 system (Bio-Rad), the median fluorescence intensity of each analyte was analyzed with the Bio-Plex Manage software (version 6.2) using a 5-parameter regression algorithm. […]
To assess the effect of the two candidate compounds HK1 and HK3 on hepatic inflammation, we measured levels of the pro-inflammatory cytokines IL-6 and IL-8.

[2] = tested on: IL-8 secretion in 3D PHH:NPC spheroids; experiment: IL-8 secretion (Luminex) by 3D PHH:NPC NASH spheroids; format: cell-based, human; details: across 1-10 μM, NASH medium
Description: as §1
Cryopreserved primary human hepatocytes were obtained from BioIVT (USA) and nonparenchymal cells (NPC) from LifeNetHealth (USA). After thawing, PHH-NPC cocultures were seeded in a multi-well 96-well Elplasia plate (Corning) in William's E medium containing 11 mM glucose, 10 μg/mL (control) or 10 mg/mL insulin (NASH), 100 nM dexamethasone, 5.5 mg/L transferrin, 6.7 μg/L selenite, 2 mM L-glutamine, 1 U/mL penicillin, 0.1 mg/mL streptomycin, and 10% fetal bovine serum (FBS). […]
After spheroid formation, cells were exposed to up to five different concentrations of the candidate molecules HK1 or HK3 (0.1 μM, 0.3 μM, 1 μM, 3 μM, and 10 μM) with or without FFA in the culture medium. […] All endpoints were evaluated after 14 days of exposure. […]
Secreted cytokines (IL-6 and IL-8) were measured in culture supernatants using a customized Magnetic Luminex Performance Assay (Human Cytokine Panel A, R&D Systems). […] The fluorescence intensity was measured using a Bio-Plex 200 system (Bio-Rad), the median fluorescence intensity of each analyte was analyzed with the Bio-Plex Manage software (version 6.2) using a 5-parameter regression algorithm. […]

With `Cc1cc(NC(=S)/C(C#N)=C(\O)C2CC2)ccc1[N+](=O)[O-]` [HK3, 2-Cyano-3-cyclopropyl-3-hydroxy-N-(3-methyl-4-nitro-phenyl)-thioacrylamide] the “IL-6 levels compared to NASH” value ([1]; 1 μM) was 73%, the “IL-6 levels compared to NASH” value ([1]; 3 μM) was 55% and the “IL-6 levels compared to NASH” value ([1]; 10 μM) was 72%. The “IL-6 secretion, effect in words” value ([1]; NASH spheroids, 1-10 μM) was “slight decrease; also recorded: stronger decrease” and the “IL-8 levels compared to NASH” value [2] was 80-91%.
